These results are taken from patent publication US20040053345A1, “Marker for probing the therapeutic efficacy of drugs” (priority 2002, published 2004).

The structures appear in SMILES notation. Entries after “also recorded” stand apart in the source; their conditions may differ.

In experiment [1] the test system is breast cancer. The experiment is described as follows: Menin expression in breast cancer tissues (immunohistological staining) versus recurrence under tamoxifen. It is filed as in vivo, human. The procedure: Thin slices (4 μm) were prepared from breast cancer tissues embedded with paraffin. After removing paraffin, the microwave treatment was carried out (5 min×3) in citrate buffer. After cooling at room temperature, the endogenous peroxidase activity was inhibited using an aqueous 0.3% hydrogen peroxide solution. Next, blocking was performed with 6 drops of 5% bovine albumin (Sigma) for one hour, and then the anti-menin antibody (Santa Cruz) (first antibody capable of immunohistological staining) was reacted overnight (8 hours). After washing, the second antibody and 6 drops of Envision+ (Dako) wherein HRP was conjugated with polymers were reacted for one hour.
After 100 mg of a coloring agent, DAB (Dojindo), was thoroughly mixed in 150 ml of PBS, the slice was immersed in a solution containing 75 μl of 30% hydrogen peroxide (0.5 μl/ml) for 1 min, and immediately immersed into and washed with tap water. After the dehydration treatment, the slice was enclosed with a cover glass, and observed by a microscopy. The specimen where menin-positive cells with brown-colored nuclei were 50% or more of total cells was determined to be menin-positive.

For experiment [2], the system named is breast cancer. To be noted: ER-positive patients, tamoxifen administered for 5 years; cited from earlier work.
In experiment [3] the test system is estrogen receptor (ER) transcription activity. Put plainly: Reporter gene assay with ERE-Luc in menin-transfected cells in the presence of tamoxifen. Type of experiment: cell-based, human. The conditions noted are these: MCF-7 cells co-transfected with menin expression vector and ERE-Luc; 1 μM tamoxifen; 24 hours.
Procedure: The cells were cultured in DMEM (ICN) medium to which 10% fetal calf serum (ICN) was supplemented.
Full-length menin cDNA was amplified by RT-PCR, and inserted into an expression vector, pcDNA3 (Invitrogen). The menin cDNA was identified by sequencing. The mutation (569delC) was introduced with a site-directed mutagenesis kit (Promega) to produce a variant menin.
The menin expression vector and the reporter gene (ERE-Luc) were co-transfected into MCF-7 cells according to the liposome method. Similarly, the menin expression vector, CMV-ERA and the reporter gene (ERE-Luc) were co-transfected. into COS-7 cells according to the liposome method. After culturing for 24 hours, the proteins were extracted from cells and assayed for their luciferase activity. The extracted proteins were measured for their protein concentration and β-galactosidase activity wherein β-galactosidase was co-transfected and the introduction efficiency was calibrated. Similar experiments were carried out with addition of 1 μM tamoxifen to the same system.

`CC/C(=C(\c1ccccc1)c1ccc(OCCN(C)C)cc1)c1ccccc1` [tamoxifen]: the cancer recurrence in the experiment on breast cancer [1] (5 menin-positive cases, tamoxifen administered in 3 cases) is 4 cases; in the experiment on breast cancer [1] (menin-negative patient cases (3 of 10) administered tamoxifen), “no recurrence”. Besides, the “recurrence rate relative to that in non-administered patients” value in the experiment on breast cancer [2] is 50%. The “inhibition of luciferase activity (ER transcription activity)” value in experiment [3] is reported as “not inhibited; also recorded: no suppressive effect”.
